Measured values taken from patent US5140023A, “Azatetracycle compounds” (G. D. Searle & Co., priority 1991, dated 1992).
Structures can show the parent of a compound that is named as a salt.

Assays:
5-HT3 = target: T1, 5-HT3 (Canis lupus familiaris, UniProt Q1HHV2); test: Antiemetic activity against cisplatin-induced emesis in beagle dogs; assay type: in vivo; details: for ED50: dog, iv, i.v. 30 min before and 2 h after cisplatin 3 mg/kg i.v., emetic episodes counted 5 h, read-out: ID50 (50% inhibition of the number of emetic episodes)
T1 construct: from tissue; host or cells: living beagle dogs (in vivo, i.v. dosing); endogenous receptor
T1 sequence (Q1HHV2 24-483): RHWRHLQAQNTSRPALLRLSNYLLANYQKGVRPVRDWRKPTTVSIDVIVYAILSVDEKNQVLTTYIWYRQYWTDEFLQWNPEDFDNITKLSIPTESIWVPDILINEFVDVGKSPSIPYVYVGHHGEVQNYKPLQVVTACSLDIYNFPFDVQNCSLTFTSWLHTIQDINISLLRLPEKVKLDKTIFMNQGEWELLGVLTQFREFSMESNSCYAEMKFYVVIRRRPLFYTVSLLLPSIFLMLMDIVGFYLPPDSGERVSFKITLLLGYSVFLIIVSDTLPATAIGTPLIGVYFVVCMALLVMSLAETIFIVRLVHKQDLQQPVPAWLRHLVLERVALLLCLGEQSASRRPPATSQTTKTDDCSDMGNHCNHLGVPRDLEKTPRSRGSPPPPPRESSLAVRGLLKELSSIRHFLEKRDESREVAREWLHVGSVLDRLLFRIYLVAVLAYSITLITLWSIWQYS
Protocol: 5-HT3 antagonism can be determined in a model of emesis induced by the chemotherapeutic agent cisplatin as described herein.
Antiemetic activity of test compound against cisplatin was determined in beagle dogs. Dogs are pretreated I.V. with a test compound dissolved in DMSO thirty minutes before administration of cisplatin 3 mg/kg.i.v. with a second dose of compounds given i.v. two hours after cisplatin administration. Emetic episodes are counted for 5 hours following cisplatin administration. The latency for first emesis and the number of emetic episodes for test compounds are compared with results for control treatment (vehicle).
Per cent inhibition of emesis for each animal is determined by the following formula: [formula] A mean inhibitory dose (ID50) which results in 50% inhibition of the number of emetic episodes is determined.

gastric emptying = test: Rat gastric emptying of a test meal (prokinetic activity); assay type: in vivo, rat (male Charles River, Crl: COBS, CD (SD) BR); details: 30 min before test meal, rats sacrificed 60 min after meal
From the text: Alternatively, the compounds of formula I wherein p is 1, A is NH and B is NH or 0 can be prepared by treating ArNH2 (37) with compounds of formula 38 (an isocyanate or activated carbonyl derivative of azatetracycles 11, 26, 32 or 35). L1 is as described above. […] Prokinetic activity of a compound can be determined by measuring the enhancement of gastric emptying of a meal in a rat model to which the compound has been administered. This method for determining prokinetic activity of a compound has been described by Droppleman, et al, J. Pharmacol. and Methods 4: 227-230 (1980).
A test meal for measuring gastric emptying in rats was prepared. Ten grams of methylcellulose (2% solution=15 centipoises; Aldrich Chemical Company, Milwaukee, Wis.) was added to 200ml of cold water and mixed at 20,000 rpm in a Waring blender to insure dispersion and hydration of the methylcellulose. In addition, two beef bouillon cubes (Wyler's, Columbus, Ohio) dissolved in 100ml of warm water was added to the mixture, followed by 16g of casein (Hammersten, Schwartz/Mann, Orangeburg, N.Y.), 8g of powdered confectioners sugar and 8g of cornstarch. The ingredients were mixed for two minutes at 20,000 rpm and the resultant test meal was refrigerated for 48 hours to allow trapped air to escape. Male Charles River Rats, Crl: COBS, CD (SD) BR Strain, 180-200g body weight, were used in groups of six animals. The animals were food deprived for 24 hours prior to the experiment with access to water ad libitum. The compounds to be evaluated were prepared in a 0.5% aqueous methylcellulose solution. If insoluble, the mixture was homogenized for two minutes at 5500 rpm using a Try R-Stir-R. The compounds were injected intraperitoneally at a volume of 5 ml/kg, 30 minutes before the test meal, (3.0ml/rat i.g.). Control animals received only the vehicle. Sixty minutes after the test meal, the rats were sacrificed by cervical dislocation. The stomachs were removed intact and weighed. The stomachs were kept opened, gently rinsed with tap water, blotted dry with paper towelling, and the empty stomach weighed. The difference between the weight of the full and empty stomach is indicative of the amount of meal remaining in the stomach. The amount of meal remaining in the stomach was subtracted from the weight of 3ml of the test meal to determine the amount of food emptied from the stomach during the test. Weight of the test meal was determined by weighing three samples (3ml) at the beginning and three samples at the end of each experiment and calculating the mean. The mean and standard error of the amount of meal emptied were calculated.
The results of following the protocol and comparing representative compounds herein to known prokinetic agents, metoclopramide and cisapride, are shown in Table III.

Row | Compound | ED50 (5-HT3) [mg/kg] | % increase in gastric emptying (gastric emptying; 1.0 mg/kg ip) [%] | % increase in gastric emptying (gastric emptying; 3.0 mg/kg ip) [%] | % increase in gastric emptying (gastric emptying; 10.0 mg/kg ip) [%] | also measured
1 | COc1cc(N)c(Cl)cc1C(=O)N[C@H]1[C@H]2C[C@@H]3CN(C2)C[C@@H]31 (relative stereo) [Example 12, 2-methoxy-4-amino-5-chloro-N-(hexahydro-1H-2,5B-methano-3aα, 6aα-cyclopenta[c]pyrrol-4α-yl)benzamidehydrochloride] | 0.03 | 45.3 | – | – | % increase in gastric emptying (gastric emptying; 0.001 mg/kg ip): -5.8%; % increase in gastric emptying (gastric emptying; 0.01 mg/kg ip): 2.0%; % increase in gastric emptying (gastric emptying; 0.03 mg/kg ip): 16.4%; % increase in gastric emptying (gastric emptying; 0.1 mg/kg ip): 31.3%; % increase in gastric emptying (gastric emptying; 0.3 mg/kg ip): 32.1%
2 | Cn1nc(C(=O)N[C@H]2[C@H]3C[C@@H]4CN(C3)C[C@@H]42)c2ccccc21 (relative stereo) [Example 27, (±)-N-(hexahydro-1H-2,5β-methano-3aα,6aα-cyclopenta[c]pyrrol-4α-yl)-1-methyl-1H-indazole-3-carboxamide, hydrochloride] | 0.1 | – | – | – | % inhibition (of emesis) (5-HT3; cisplatin 3 mg/kg i.v., printed in parentheses under 0.10 mg/kg iv): 72%
3 | COc1cc(N)c(Cl)cc1C(=O)NC1CCN2CCCC1C2 (centres unmarked) [BRL-24924] | 0.1 | 29.8 | 34.2 | 35.2 | –
4 | COc1cc(N)c(Cl)cc1C(=O)NC1CCN(CCCOc2ccc(F)cc2)CC1OC (centres unmarked) [Cisapride, cisapride] | 0.6 | 9.8 | 15.4 | 25.0 | –
5 | CN1[C@@H]2CC[C@H]1C[C@@H](OC(=O)c1c[nH]c3ccccc13)C2 [ICS 205-930] | 0.01 | – | – | – | –
6 | CCN(CC)CCNC(=O)c1cc(Cl)c(N)cc1OC [METOCLOPRAMIDE, metoclopramide] | – | 2.6 | 11.2 | 34.1 | –
7 | COc1cc(N)c(Cl)cc1C(=O)NC1CN2CCC1CC2 (centres unmarked) [ZACOPRIDE] | – | 11.8 | 9.3 | 18.5 | % increase in gastric emptying (gastric emptying; 0.3 mg/kg ip): 1.4%; % increase in gastric emptying (gastric emptying; 30.0 mg/kg ip): 6.3%
